We go through 19 compounds from ChEMBL document CHEMBL1136157, “Synthesis of 3a,4-dihydro-3H-[1]benzopyrano[4,3-c]isoxazoles, displaying combined 5-HT uptake inhibiting and alpha(2)-adrenoceptor antagonistic activities: a novel series of potential antidepressants” (Bioorg Med Chem Lett, 2003).

For this assay, the target named is Sodium-dependent serotonin transporter (Homo sapiens) (UniProt P31645). The assay is described as follows: In vitro binding affinity towards human serotonin transporter.
Sodium-dependent serotonin transporter (Homo sapiens), sequence (P31645 whole entry, looked up): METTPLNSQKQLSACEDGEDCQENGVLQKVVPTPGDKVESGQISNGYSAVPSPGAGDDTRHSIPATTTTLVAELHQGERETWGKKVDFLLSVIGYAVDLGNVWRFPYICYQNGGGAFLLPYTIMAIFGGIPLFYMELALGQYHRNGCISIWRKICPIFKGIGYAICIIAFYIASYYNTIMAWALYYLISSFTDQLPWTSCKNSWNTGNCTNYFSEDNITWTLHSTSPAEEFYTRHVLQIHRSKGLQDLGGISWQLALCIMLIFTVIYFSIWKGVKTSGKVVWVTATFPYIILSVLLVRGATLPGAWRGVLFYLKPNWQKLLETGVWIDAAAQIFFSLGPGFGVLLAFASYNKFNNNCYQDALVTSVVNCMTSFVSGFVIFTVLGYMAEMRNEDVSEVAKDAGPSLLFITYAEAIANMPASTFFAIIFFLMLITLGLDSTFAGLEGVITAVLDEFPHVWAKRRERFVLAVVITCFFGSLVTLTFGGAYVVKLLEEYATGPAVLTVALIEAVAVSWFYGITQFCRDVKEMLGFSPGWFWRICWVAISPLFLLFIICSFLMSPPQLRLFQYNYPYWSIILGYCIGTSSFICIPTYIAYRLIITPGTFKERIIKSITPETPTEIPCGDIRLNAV

`COc1cc2c(cc1OC)C1=NOC(CN3CCN(C/C=C(\C)c4ccccc4)CC3)C1CO2` (centres undefined) came in with a Ki of 0.01 µM.

`COc1cc2c(cc1OC)C1=NOC(CN3CCN(CC4=Cc5ccccc5C4)CC3)C1CO2` (centres undefined) gave an inhibition constant Ki of 0.0041 µM.

`COc1cc2c(cc1OC)C1=NOC(CN3CCN(CCC(=O)c4ccccc4)CC3)C1CO2` (centres undefined) came in with an inhibition constant Ki of 0.123 µM.

`COc1cc2c(cc1OC)C1=NO[C@@H](CN3CCN(C/C=C\c4ccccc4)CC3)[C@@H]1CO2` gave an inhibition constant (Ki) of 0.035 µM.

`COc1ccc2c(c1)C1=NOC(CN3CCN(C/C=C/c4ccccc4)CC3)C1CO2` (centres undefined) showed an inhibitory constant (Ki) of 0.014 µM.

`COc1ccc2c(c1)OCC1C2=NOC1CN1CCN(C/C=C/c2ccccc2)CC1` (centres undefined) returned a Ki of 0.019 µM.

The compound `COc1cc2c(cc1OC)C1=NOC(CN3CCN(CCCc4ccccc4)CC3)C1CO2` (centres undefined) returned an inhibitory constant (Ki) of 0.01 µM.

For the compound `COc1cc2c(cc1OC)C1=NOC(CN3CCN(Cc4ccccc4)CC3)C1CO2` (centres undefined), the Ki came out at 0.158 µM.

In the case of `COc1cc2c(cc1OC)C1=NOC(CN3CCN(Cc4ccc5ncccc5c4)CC3)C1CO2` (centres undefined), the affinity, expressed as Ki, was 0.0081 µM.

Take `COc1cc2c(cc1OC)C1=NOC(CN3CCN(Cc4cccc5ccccc45)CC3)C1CO2` (centres undefined): affinity was put at a Ki of 0.0039 µM.

On to `COc1cc2c(cc1OC)C1=NOC(CN3CCN(Cc4cnc5ccccc5c4)CC3)C1CO2` (centres undefined), for which the Ki was 0.014 µM.

As to `COc1cc2c(cc1OC)C1=NOC(CN3CCN(CCc4ccccc4)CC3)C1CO2` (centres undefined), the affinity corresponds to a Ki of 0.199 µM.

Regarding `COc1cc2c(cc1OC)C1=NOC(CN3CCN(C/C=C/c4ccccc4)CC3)C1CO2` (centres undefined), the affinity corresponds to a Ki of 0.0083 µM.

`COc1cc2c(cc1OC)C1=NOC(CN3CCN(Cc4csc5ccccc45)CC3)C1CO2` (centres undefined): the Ki was 0.0072 µM.

With `COc1cc2c(cc1OC)C1=NOC(CN3CCN(Cc4cc5ccccc5s4)CC3)C1CO2` (centres undefined), the inhibitory constant (Ki) stood at 0.005 µM.

In the case of `COc1cc2c(cc1OC)C1=NO[C@@H](CN3CCN(C/C=C/c4ccccc4)CC3)[C@@H]1CO2` (stereo in doubt; (+)5), the inhibition constant Ki amounted to 0.0012 µM.

On to `COc1cc2c(cc1OC)C1=NO[C@@H](CN3CCN(C/C=C(\C)c4ccccc4)CC3)[C@@H]1CO2` (stereo in doubt; (+)15g), for which the Ki was 0.0045 µM.

In turn, `COc1cc2c(cc1OC)C1=NO[C@@H](CN3CCN(C/C=C/c4ccccc4)CC3)[C@@H]1CO2` (stereo in doubt; (-)5) had an inhibition constant Ki of 0.0034 µM.

Regarding `COc1cc2c(cc1OC)C1=NO[C@@H](CN3CCN(C/C=C(\C)c4ccccc4)CC3)[C@@H]1CO2` (stereo in doubt; (-)15g), the Ki turned out to be 0.01 µM.
